# From patent US10626112B2, “Heterocyclic sulfonamide derivative and medicine comprising same” (EA PHARMA CO., LTD., priority 2014, dated 2020)
# Biological target: T1, human TRPA1 (Homo sapiens (Human), UniProt O75762)
# Experiment: Measurement of TRPA1 antagonist activity (1): intracellular calcium increase
# Assay type: cell-based
# Settings: 293T cells transfected with human TRPA1 expression plasmid; allylisothiocyanate 20 μM stimulation; intracellular calcium fluorescence; read-out: hTRPA1 IC50
# In short: (§1)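 HEK293T cells transiently transfected with full-length human TRPA1, loaded with Calcium4 dye in HBSS/20 mM HEPES pH 7.2. Test compound preincubated 10 min, then allylisothiocyanate added at 20 μM final and fluorescence change followed for 5 min. IC50 from sigmoid fit of percent inhibition relative to agonist and buffer controls.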
# T1 sequence (O75762 whole entry): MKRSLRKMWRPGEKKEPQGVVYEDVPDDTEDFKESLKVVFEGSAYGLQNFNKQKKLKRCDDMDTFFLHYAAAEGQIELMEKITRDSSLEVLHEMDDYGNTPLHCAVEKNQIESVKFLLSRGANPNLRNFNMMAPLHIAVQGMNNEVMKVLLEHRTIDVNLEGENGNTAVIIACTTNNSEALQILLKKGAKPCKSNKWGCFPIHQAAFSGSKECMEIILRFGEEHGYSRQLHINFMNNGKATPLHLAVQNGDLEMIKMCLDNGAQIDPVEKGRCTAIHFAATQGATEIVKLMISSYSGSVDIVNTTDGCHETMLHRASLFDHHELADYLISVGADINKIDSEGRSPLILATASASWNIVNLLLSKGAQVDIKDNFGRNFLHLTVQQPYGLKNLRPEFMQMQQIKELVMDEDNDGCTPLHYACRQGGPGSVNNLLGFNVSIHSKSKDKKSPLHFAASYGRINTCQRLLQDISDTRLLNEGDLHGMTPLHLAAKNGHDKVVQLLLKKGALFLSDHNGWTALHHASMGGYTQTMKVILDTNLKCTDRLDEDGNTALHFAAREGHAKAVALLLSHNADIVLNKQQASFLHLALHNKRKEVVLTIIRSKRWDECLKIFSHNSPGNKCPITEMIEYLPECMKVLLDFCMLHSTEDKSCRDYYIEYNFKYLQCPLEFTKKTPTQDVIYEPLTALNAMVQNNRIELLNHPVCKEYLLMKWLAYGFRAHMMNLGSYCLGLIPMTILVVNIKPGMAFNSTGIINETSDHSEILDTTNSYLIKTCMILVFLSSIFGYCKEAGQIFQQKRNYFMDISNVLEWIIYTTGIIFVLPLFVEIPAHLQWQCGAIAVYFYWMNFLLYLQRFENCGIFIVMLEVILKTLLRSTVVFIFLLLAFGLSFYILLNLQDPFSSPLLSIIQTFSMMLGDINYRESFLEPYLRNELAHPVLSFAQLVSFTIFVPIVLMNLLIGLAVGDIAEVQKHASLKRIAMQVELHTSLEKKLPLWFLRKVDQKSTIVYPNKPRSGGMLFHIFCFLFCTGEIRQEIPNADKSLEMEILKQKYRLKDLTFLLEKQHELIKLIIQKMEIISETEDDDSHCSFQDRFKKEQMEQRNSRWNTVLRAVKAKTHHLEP
row,IC50 [nM],SMILES
1,26,"O=C(NCc1cncc(-c2ccc(C(F)(F)F)cn2)c1)[C@@H]1CCCN1S(=O)(=O)c1cc2ccccc2o1 [Example 87, (2S)-1-(benzofuran-2-ylsulfonyl)-N-[[5-[5-(trifluoromethyl)-2-pyridyl]-3-pyridyl]methyl]pyrrolidine-2-carboxamide]"
2,12,"C[C@H](NS(=O)(=O)c1cc2cc(F)ccc2o1)C(=O)NCc1cc(-c2ccc(C(F)(F)F)nc2)ncn1 [Example 191, (2S)-2-[(5-fluorobenzofuran-2-yl)sulfonylamino]-N-[[6-[6-(trifluoromethyl)-3-pyridyl]pyrimidin-4-yl]methyl]propanamide]"
3,1.3,"O=C(NCc1cc(-c2ccc(C(F)(F)F)cn2)ccn1)[C@@H]1CCCN1S(=O)(=O)c1cc2ccccc2o1 [Example 179, (2S)-1-(benzofuran-2-ylsulfonyl)-N-[[4-[5-(trifluoromethyl)-2-pyridyl]-2-pyridyl]methyl]pyrrolidine-2-carboxamide]"

# Biological target: T1, human TRPA1
# Experiment: Measurement of TRPA1 antagonist activity (2): as (1), different lot of human TRPA1 expression plasmid
# Assay type: cell-based
# Settings: 293T cells transfected with human TRPA1, allylisothiocyanate 20 μM stimulation, calcium fluorescence, read-out: hTRPA1 IC50
# In short: as §1, with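 “with” for “with full-length”, “TRPA1 plasmid (different lot),” for “TRPA1,”, “read” for “followed”, “of” for “of percent”, “AITC-alone” for “agonist”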
row,SMILES,IC50 [nM]
1,"C[C@@H](C(=O)NCc1cc(-c2ccc(C(F)(F)F)cn2)ccn1)N(C)S(=O)(=O)c1cc2cc(F)ccc2o1 [Example 426, (2S)-2-[(5-fluorobenzofuran-2-yl)sulfonyl-methyl-amino]-N-[[4-[5-(trifluoromethyl)-2-pyridyl]-2-pyridyl]methyl]propanamide]",7.7
2,"CC(C)N(CC(=O)NCc1cc(-c2ccc(OC(F)(F)F)cc2)ncn1)S(=O)(=O)c1cc2cc(F)ccc2o1 [Example 364, 2-[(5-fluorobenzofuran-2-yl)sulfonyl-isopropyl-amino]-N-[[6-[4-(trifluoromethoxy)-phenyl]pyrimidin-4-yl]methyl]acetamide]",10
3,"O=C(NCc1ccc(O)c(-c2ccc(C(F)(F)F)nn2)c1)[C@@H]1CCCN1S(=O)(=O)c1cc2ccccc2o1 [Example 380, (2S)-1-(benzofuran-2-ylsulfonyl)-N-[[4-hydroxy-3-[6-(trifluoromethyl)pyridazin-3-yl]phenyl]methyl]pyrrolidine-2-carboxamide]",3.1
4,"C[C@H](NS(=O)(=O)c1cc2cc(F)ccc2o1)C(=O)NCc1cc(-c2ccc(C(F)(F)F)cc2)nc(N(C)C)n1 [Example 370, (2S)-N-[[2-(dimethylamino)-6-[4-(trifluoromethyl)-phenyl]pyrimidin-4-yl]methyl]-2-[(5-fluorobenzofuran-2-yl)sulfonylamino]propanamide]",73
5,"CN(C(C)(C)C(=O)NCc1cc(-c2ccc(C(F)(F)F)cn2)ccn1)S(=O)(=O)c1cc2cc(F)ccc2o1 [Example 340, 2-[(5-fluorobenzofuran-2-yl)sulfonyl-methyl-amino]-2-methyl-N-[[4-[5-(trifluoromethyl)-2-pyridyl]-2-pyridyl]methyl]propanamide]",380
6,"O=C(NCc1ccc(O)c(-c2cnc(C(F)(F)F)cn2)c1)[C@@H]1CCN1S(=O)(=O)c1cc2cc(F)ccc2o1 [Example 390, (2S)-1-(5-fluorobenzofuran-2-yl)sulfonyl-N-[[4-hydroxy-3-[5-(trifluoromethyl)pyrazin-2-yl]phenyl]methyl]azetidine-2-carboxamide]",9.3
7,"O=C(NCc1cc(-c2cnc(C(F)(F)F)cn2)ccn1)[C@@H]1CCCN1S(=O)(=O)c1cc2cc(F)ccc2o1 [Example 405, (2S)-1-(5-fluorobenzofuran-2-yl)sulfonyl-N-[[4-[5-(trifluoromethyl)pyrazin-2-yl]-2-pyridyl]methyl]pyrrolidine-2-carboxamide]",3.5

# The remaining lines, values ahead:
row,IC50 [nM],SMILES
1,52,"O=C(NCc1cncc(-c2ccc(C(F)(F)F)cn2)c1)[C@@H]1CCCN1S(=O)(=O)c1cc2ccccc2o1 [Example 87, (2S)-1-(benzofuran-2-ylsulfonyl)-N-[[5-[5-(trifluoromethyl)-2-pyridyl]-3-pyridyl]methyl]pyrrolidine-2-carboxamide]"
2,35,"C[C@H](NS(=O)(=O)c1cc2cc(F)ccc2o1)C(=O)NCc1cc(-c2ccc(C(F)(F)F)nc2)ncn1 [Example 191, (2S)-2-[(5-fluorobenzofuran-2-yl)sulfonylamino]-N-[[6-[6-(trifluoromethyl)-3-pyridyl]pyrimidin-4-yl]methyl]propanamide]"
3,4.1,"O=C(NCc1cc(-c2ccc(C(F)(F)F)cn2)ccn1)[C@@H]1CCCN1S(=O)(=O)c1cc2ccccc2o1 [Example 179, (2S)-1-(benzofuran-2-ylsulfonyl)-N-[[4-[5-(trifluoromethyl)-2-pyridyl]-2-pyridyl]methyl]pyrrolidine-2-carboxamide]"
4,21,"CN(C)c1nc(CNC(=O)[C@@H]2CCN2S(=O)(=O)c2cc3cc(F)ccc3o2)cc(-c2ccc(C(F)(F)F)cc2O)n1 [Example 398, (2S)-N-[[2-(dimethylamino)-6-[2-hydroxy-4-(trifluoromethyl)phenyl]-pyrimidin-4-yl]methyl]-1-(5-fluorobenzofuran-2-yl)sulfonyl-azetidine-2-carboxamide]"
5,16,"CC(C)N(CC(=O)NCc1cc(-c2ccc(C(F)(F)F)cn2)ccn1)S(=O)(=O)c1cc2cc(F)ccc2o1 [Example 348, 2-[(5-fluorobenzofuran-2-yl)sulfonyl-isopropyl-amino]-N-[[4-[5-(trifluoromethyl)-2-pyridyl]-2-pyridyl]methyl]acetamide]"
6,33,"O=C(CN(CC1CCNCC1)S(=O)(=O)c1cc2cc(F)ccc2o1)NCc1cc(-c2ccc(C(F)(F)F)cn2)ccn1 [Example 423, 2-[(5-fluorobenzofuran-2-yl)sulfonyl-(4-piperidylmethyl)amino]-N-[[4-[5-(trifluoromethyl)-2-pyridyl]-2-pyridyl]methyl]acetamide]"
7,4.2,"CCN([C@@H](C)C(=O)NCc1cc(-c2ccc(C(F)(F)F)cn2)ccn1)S(=O)(=O)c1cc2cc(F)ccc2o1 [Example 416, (2S)-2-[ethyl-(5-fluorobenzofuran-2-yl)sulfonyl-amino]-N-[[4-[5-(trifluoromethyl)-2-pyridyl]-2-pyridyl]methyl]propanamide]"
8,21,"O=C(NCc1cc(-c2ccc(C(F)F)cc2)ccn1)[C@@H]1CCCN1S(=O)(=O)c1cc2ccccc2o1 [Example 333, (2S)-1-(benzofuran-2-ylsulfonyl)-N-[[4-[4-(difluoromethyl)phenyl]-2-pyridyl]methyl]pyrrolidine-2-carboxamide]"
